Laboratory results taken from US7771978B2, “β1,4mannosyltransferases” (priority 2003, dated 2010).

Target: T1, Egghead β1-4-mannosyltransferase (Drosophila melanogaster, UniProt O01346)
T1 construct: a secreted version of egghead was prepared as described for the full length construct; made in house; host or cells: baculovirus-infected Sf9 and High Five insect cells (microsomal fractions)
T1 sequence (O01346 1-457): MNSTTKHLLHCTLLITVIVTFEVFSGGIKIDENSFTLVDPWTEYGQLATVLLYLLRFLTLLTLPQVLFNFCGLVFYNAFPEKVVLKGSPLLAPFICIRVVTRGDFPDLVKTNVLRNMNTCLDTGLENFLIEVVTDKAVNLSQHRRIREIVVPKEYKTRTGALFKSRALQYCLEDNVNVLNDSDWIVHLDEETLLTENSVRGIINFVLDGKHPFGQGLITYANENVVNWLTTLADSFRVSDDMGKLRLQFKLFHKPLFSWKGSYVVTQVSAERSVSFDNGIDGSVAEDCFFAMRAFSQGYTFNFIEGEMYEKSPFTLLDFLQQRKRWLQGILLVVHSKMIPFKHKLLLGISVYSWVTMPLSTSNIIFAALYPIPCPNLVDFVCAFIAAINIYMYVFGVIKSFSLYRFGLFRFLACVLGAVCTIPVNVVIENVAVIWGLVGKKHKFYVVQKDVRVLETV
Experiment: Egghead transfer of Man to glycosphingolipid acceptors (thin-layer chromatography/autoradiography)
Assay type: biochemical
Conditions: GDP-Man donor; microsomal fraction; 4 h
Method: Microsomal fraction of egghead (Egh) and GalNAc-T4 (GT4) were incubated with Glcβ1-1Cer, LacCer, or no glycolipid and GDP-Man as described in Experimental Procedures. Autoradiography of thin-layer chromatography of reaction products (4 h). Plate was run in chloroform-methanol-water (60/38/10, v/v/v). Migration of standard glycolipids is indicated with arrows.
Glycosphingolipids of the fruit fly are based on the arthroseries GlcNAcβ1-3Manβ1-4Glcβ1-1 Cer core. […] Evidence in support hereof was provided by showing that brainiac utilizes the product formed by egghead (FIG. 5). This assay was carried out with n-octyl-β-Glc as initial acceptor substrate because it served as a better substrate than GlcCer under the assay conditions used.
An expression construct of the full coding region of egghead was prepared by RT-PCR using D. melanogaster mRNA and the sense primer Egh001 (5′-[…]-3′, SEQ ID NO: 4) with a BglII restriction site and the anti-sense primer Egh002 (5′-[…]-3′, SEQ ID NO: 5) with a XbaI restriction site. The resulting 1.1 Kb fragment was cloned into the BglII/XbaI sites of pVL1393 (PharMingen) and pVL1393-MYC. Furthermore an expression construct for a secreted version of egghead was prepared as described for the full length construct but using sense primer Egh003 (5′[…]-3′, SEQ ID NO: 6) with a BglII restriction site and the anti-sense primer Egh002. The resulting 1 Kb fragment was cloned into pAcGP67 Baculo-virus expression vector. Expression constructs pVL-egghead-full and pVL-egghead-Myc-full and pAcGP67-egghead-sol were co-transfected with Baculo-Gold™ DNA (Pharmingen) in Sf9 cells as described (12). […] Pellets were used at 10 mg/ml (Protein concentration determined by BCA, Pierce). Reaction products of soluble acceptors were quantified by chromatography on Dowex AG1-X8 (Sigma). Assays with glycosphingolipids included 5 mM 2-Acetamido-2-deoxy-D-Glucono-1,5-lactone (inhibitor of hexosaminidase activity), and products were purified on octadecyl-silica cartridges (Supelco) and analyzed by high performance thin-layer chromatography followed by autoradiography.

Row | glycosphingolipid as acceptor substrate of egghead (in words) | Substance
1 | not to serve as a substrate | Galβ1-1Cer
2 | does not serve as substrate | Galβ1-4Glcβ1-Cer [LacCer]
3 | utilizes | Glcβ1-1Cer
